According to patent US7537911B2, “ATM related kinase, ATX, nucleic acids encoding same and methods of use” (Burnham Institute for Medical Research, priority 2002, dated 2009):

Experiments:
p53 = p53 Ser-15 phosphorylation and p53 accumulation (immunoblot); type: cell-based, human
Description: A major mediator of stress-induced signaling in mammalian cells is the tumor suppressor protein, p53 (Ko and Prives, Genes and Development 10:1054-1072, (1996); Ryan et al., Curr. Opin. Cell Biol. 13:332-337 (2001)). ATX phosphorylates p53 on Ser-15 (FIG. 1C), a site implicated in the regulation of p53 stability and transcriptional activity (Dumaz and Meek, Curr. Opin. Cell Biol. 13:225-231 (1999); Zhang and Xiong, Science 292:1910-1915 (2001)). Therefore, the possibility that these two proteins are functionally linked during cellular stress responses was investigated. U2OS cells were transiently transfected with a HA-ATXWT or HA-ATXKI expression plasmid, together with a GFP-encoding plasmid to allow for FACS-based enrichment of the transfected cells. The GFP+ cells were then examined for IR-induced stabilization of p53, as well as for specific phosphorylation of this protein on Ser-15. […] In contrast, overexpression of ATXWT enhanced both of these responses in cells exposed to IR.
The recognition of UV light-induced DNA damage occurs primarily during S phase, when pyrimidine dimers and other bulky lesions interfere with replication fork progression (Friedberg, DNA Repair and Mutagenesis (Washington, D.C., ASM Press) (1995); Lindahl and Wood, Cell 103:1121-1131 (1999)).
In order to further define the potential linkage between DNA replicational stress and ATX, the response of AS-treated cells to 5-fluorouracil (5-FU), an S-phase specific cytotoxic agent was examined (Danenberg et al., Seminars in Oncology. 26:621-631 (1999); Grem, Investigational New Drugs 18:299-313 (2000)).
Changes in phosphorylation at Ser-15 are typically accompanied by alterations in the expression of the p53 protein, which complicates the interpretation of results obtained by immunoblotting of whole cell extracts with phospho-Ser-15-specific antibodies. In order to confirm that reduced ATX expression interferes with stress-induced Ser-15 phosphorylation, U2OS cells were transfected with either the S or AS oligonucleotide, and then were pretreated with the proteasome inhibitor, LLnV, to stabilize p53. In the presence of LLnV, the p53 level in each test population was relatively unaffected by UV exposure (data not shown). However, the ratio of phospho-Ser-15 to total p53 protein was increased by UV irradiation of both the mock-transfected and S oligonucleotide-treated cells.

U2OS cells [1] = assay: Clonogenic survival assay of oligonucleotide-transfected cells; type: cell-based, human; details: for reduction of basal level of colony outgrowth (basal clonogenic activity): non-irradiated, 10 days in culture
hChk2 = assay: IR-dependent phosphorylation of hChk2 (immunoblot); type: cell-based, human; details: U2OS
Description: Recent findings point toward ATM as a critical upstream regulator of the activity of the checkpoint kinase, hChk2, in IR-damaged cells (Ahn et al., Cancer Res. 60:5934-5936 (2000); Melchionna et al., Nat. Cell Biol. 2:762-765 (2000)). To determine whether ATX was also involved in hChk2 activation, the effect of AS oligonucleotide treatment on the IR-dependent phosphorylation of hChk2 was examined. […] Moreover, the differential effects of AS treatment on p53 expression versus hChk2 activation argue against the possibility that AS exposure leads to nonspecific inhibition of checkpoint signaling responses to IR-induced DNA damage.

ATX [2] = assay: ATX protein level in oligonucleotide-treated cells (immunoblot); type: cell-based, human; details: U2OS
U2OS cells [3] = assay: Cell-cycle distribution by flow cytometry; type: cell-based, human; details: for cell-cycle distribution after IR exposure: 24 h post-irradiation
Description: To test this possibility, U2OS cells were pre-treated with S or AS oligonucleotides, exposed to IR, and cell-cycle distributions at 24 h post-irradiation were determined.

ATX [4] = target: T1, ATX (Homo sapiens, UniProt Q96Q15); assay: Immune complex kinase assay, immunoprecipitated HA-ATXWT, GST-p53 1-70 substrate; type: biochemical; details: pretreatment of immunoprecipitated HA-ATXWT; GST-p53 1-70 phosphorylation; read-out: drug concentration required for 50% inhibition (IC50) of ATX activity in vitro
T1 construct: expressed in transfected cells; host or cells: HEK 293T, pcDNA3.1, immunoprecipitated with anti-HA antibody
T1 sequence (Q96Q15 141-3661 S144C): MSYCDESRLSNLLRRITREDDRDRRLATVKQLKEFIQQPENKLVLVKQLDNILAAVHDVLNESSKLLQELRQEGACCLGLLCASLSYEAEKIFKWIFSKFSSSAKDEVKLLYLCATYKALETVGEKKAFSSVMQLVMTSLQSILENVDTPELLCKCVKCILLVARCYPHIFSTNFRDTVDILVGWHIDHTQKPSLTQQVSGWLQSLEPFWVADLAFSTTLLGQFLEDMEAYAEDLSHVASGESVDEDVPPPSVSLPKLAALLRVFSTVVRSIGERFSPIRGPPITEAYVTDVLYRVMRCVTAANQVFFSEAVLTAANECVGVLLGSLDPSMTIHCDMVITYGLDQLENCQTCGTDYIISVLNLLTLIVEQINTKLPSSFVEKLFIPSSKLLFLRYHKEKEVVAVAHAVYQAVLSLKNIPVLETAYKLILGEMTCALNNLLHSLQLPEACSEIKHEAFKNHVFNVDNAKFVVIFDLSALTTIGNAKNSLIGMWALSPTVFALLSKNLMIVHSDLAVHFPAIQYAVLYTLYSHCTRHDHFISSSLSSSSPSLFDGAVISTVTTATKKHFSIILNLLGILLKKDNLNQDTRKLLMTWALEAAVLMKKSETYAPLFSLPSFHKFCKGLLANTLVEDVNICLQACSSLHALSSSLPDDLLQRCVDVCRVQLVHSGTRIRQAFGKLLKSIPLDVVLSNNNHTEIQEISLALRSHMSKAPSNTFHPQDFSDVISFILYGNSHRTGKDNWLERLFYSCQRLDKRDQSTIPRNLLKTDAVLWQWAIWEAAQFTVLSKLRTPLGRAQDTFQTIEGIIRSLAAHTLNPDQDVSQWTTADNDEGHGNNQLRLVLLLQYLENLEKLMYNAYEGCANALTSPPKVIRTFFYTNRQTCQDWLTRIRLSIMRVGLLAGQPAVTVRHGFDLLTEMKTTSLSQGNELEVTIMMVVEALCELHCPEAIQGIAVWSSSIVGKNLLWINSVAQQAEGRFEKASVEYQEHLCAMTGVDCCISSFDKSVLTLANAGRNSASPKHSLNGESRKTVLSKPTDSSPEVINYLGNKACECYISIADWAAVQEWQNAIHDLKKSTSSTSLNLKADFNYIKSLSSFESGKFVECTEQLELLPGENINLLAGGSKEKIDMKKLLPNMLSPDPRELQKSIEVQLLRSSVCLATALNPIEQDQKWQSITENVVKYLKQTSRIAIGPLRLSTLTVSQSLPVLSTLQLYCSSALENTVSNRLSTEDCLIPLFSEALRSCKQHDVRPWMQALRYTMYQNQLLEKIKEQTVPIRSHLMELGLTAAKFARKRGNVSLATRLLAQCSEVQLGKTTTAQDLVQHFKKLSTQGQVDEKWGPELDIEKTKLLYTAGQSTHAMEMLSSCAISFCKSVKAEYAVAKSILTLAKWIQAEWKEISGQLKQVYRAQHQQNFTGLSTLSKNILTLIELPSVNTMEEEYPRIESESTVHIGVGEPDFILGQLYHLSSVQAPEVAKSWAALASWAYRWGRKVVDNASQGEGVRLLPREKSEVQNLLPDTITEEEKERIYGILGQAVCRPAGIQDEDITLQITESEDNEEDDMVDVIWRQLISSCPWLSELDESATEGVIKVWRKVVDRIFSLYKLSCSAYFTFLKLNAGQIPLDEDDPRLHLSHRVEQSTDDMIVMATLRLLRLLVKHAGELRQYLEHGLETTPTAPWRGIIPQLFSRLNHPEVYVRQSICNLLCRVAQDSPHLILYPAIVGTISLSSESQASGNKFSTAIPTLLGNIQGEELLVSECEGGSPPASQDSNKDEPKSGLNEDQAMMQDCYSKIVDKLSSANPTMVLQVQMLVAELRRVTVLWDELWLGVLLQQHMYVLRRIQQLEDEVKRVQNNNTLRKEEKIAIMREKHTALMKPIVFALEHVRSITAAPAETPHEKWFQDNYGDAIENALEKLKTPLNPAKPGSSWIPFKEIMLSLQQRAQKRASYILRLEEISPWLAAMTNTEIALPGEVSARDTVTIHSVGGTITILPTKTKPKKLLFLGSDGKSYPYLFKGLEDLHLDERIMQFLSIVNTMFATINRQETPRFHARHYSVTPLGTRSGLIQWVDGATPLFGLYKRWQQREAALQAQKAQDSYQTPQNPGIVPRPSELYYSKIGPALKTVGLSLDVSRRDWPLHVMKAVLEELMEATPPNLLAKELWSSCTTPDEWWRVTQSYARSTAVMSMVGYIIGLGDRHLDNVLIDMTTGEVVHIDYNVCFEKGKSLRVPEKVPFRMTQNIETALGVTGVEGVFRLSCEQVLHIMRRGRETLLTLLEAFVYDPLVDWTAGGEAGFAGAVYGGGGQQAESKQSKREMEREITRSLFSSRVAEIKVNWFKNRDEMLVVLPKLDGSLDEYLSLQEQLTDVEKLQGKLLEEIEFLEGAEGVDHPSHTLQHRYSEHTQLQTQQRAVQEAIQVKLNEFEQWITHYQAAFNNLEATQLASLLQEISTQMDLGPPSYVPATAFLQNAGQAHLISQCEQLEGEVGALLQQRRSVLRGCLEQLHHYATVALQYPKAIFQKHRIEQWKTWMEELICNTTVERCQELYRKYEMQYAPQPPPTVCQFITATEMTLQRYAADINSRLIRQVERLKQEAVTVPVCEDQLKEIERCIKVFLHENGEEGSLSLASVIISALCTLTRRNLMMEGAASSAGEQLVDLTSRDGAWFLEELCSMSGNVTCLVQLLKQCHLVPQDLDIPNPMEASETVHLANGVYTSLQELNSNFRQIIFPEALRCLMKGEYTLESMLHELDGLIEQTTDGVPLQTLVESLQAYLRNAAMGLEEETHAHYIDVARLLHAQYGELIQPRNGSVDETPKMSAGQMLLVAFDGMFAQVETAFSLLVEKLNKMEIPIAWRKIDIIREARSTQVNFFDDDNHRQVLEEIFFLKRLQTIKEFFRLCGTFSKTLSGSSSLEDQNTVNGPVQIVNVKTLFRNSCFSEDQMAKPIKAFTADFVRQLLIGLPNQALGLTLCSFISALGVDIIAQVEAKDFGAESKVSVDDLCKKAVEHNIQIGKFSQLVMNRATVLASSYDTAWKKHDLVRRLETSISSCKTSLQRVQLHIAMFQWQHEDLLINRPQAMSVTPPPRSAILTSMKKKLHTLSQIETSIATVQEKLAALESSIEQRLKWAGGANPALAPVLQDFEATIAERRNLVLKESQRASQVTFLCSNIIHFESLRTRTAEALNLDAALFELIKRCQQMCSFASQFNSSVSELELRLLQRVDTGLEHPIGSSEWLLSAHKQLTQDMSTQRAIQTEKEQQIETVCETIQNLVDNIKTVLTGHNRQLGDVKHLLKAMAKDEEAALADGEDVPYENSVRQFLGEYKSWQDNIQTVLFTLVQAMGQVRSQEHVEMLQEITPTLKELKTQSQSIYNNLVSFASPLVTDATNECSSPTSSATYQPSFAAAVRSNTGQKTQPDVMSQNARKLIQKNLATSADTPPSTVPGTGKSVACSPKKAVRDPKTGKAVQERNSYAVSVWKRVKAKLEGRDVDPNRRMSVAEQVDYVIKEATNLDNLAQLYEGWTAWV

## 5′-AGCAAGCTCCCTCCTGTCTC-3′ (phosphorothioate backbone, further chemistry not given here) [AS oligonucleotide, antisense phosphorothioate oligonucleotide complementary to ATX nucleotides 210-229]
p53; AS-treated U2OS versus S-treated
  level of p53 induction by 5-FU: identical to that observed in their S-treated counterparts
p53; U2OS pretreated with proteasome inhibitor LLnV
  stoichiometric increase in Ser-15 phosphorylation triggered by UV-induced stress: effectively blocked
p53; U2OS, IR
  phosphorylation and stabilization of p53 induced by IR exposure: reduced both the phosphorylation and stabilization of p53
p53; U2OS, UV
  Ser-15 phosphorylation and p53 protein accumulation in UV-damaged cells: severely impaired
U2OS cells [1]; IR (FIG. 2C) and UV
  sensitivity to suppressive effects of IR and UV on clonogenic survival: significantly more sensitive
U2OS cells [1]
  reduction of basal level of colony outgrowth (basal clonogenic activity): 75%
hChk2
  IR-dependent phosphorylation of hChk2: retained the ability to phosphorylate hChk2
ATX [2]; immunoblot
  expression levels of control proteins ATM and PLC-γ1: no significant change
ATX [2]; over 10 independent trials
  reduction in ATX protein: 50-90%
U2OS cells [3]
  cell-cycle distribution after IR exposure: arrested primarily in G2/M phase
U2OS cells [3]; compared to S oligonucleotide-treated cells
  cell-cycle distribution in the absence of IR: reduction in the percentage of G1 phase cells, and a concomitant accumulation of G2/M phase cells

## 5′-GAGACAGGAGGGAGCTTGCT-3′ (all phosphorothioate, sugars by position and methylation of C not given here) [S oligonucleotide, reference compound]
U2OS cells [1]
  reduction of basal level of colony outgrowth (basal clonogenic activity): 25%
U2OS cells [3]
  cell-cycle distribution after IR exposure: accumulated in both G1 and G2/M phases

## O=c1[nH]cc(F)c(=O)[nH]1 [5-FU, 5-fluorouracil, reference compound]
p53; U2OS treated with the drug
  p53 Ser-15 phosphorylation: not accompanied by an increase in Ser-15 phosphorylation
  p53 expression: increased p53 expression to levels similar to those observed in UV-irradiated cells

## COC[C@H]1OC(=O)c2coc3c2[C@@]1(C)C1=C(C3=O)[C@@H]2CCC(=O)[C@@]2(C)C[C@H]1OC(C)=O [wortmannin]
ATX [4]
  IC50: 0.01 to 0.1 µM
